Measured values: patent US20100003250A1, “(2-ARYL-7H-PYRROLO[2,3-D]PYRIMIDIN-4-YL)MORPHOLINE COMPOUNDS, THEIR USE AS MTOR KINASE AND PI3 KINASE INHIBITORS, AND THEIR SYNTHESES” (Wyeth, priority 2008, published 2010)

Key:
Type in all cases: biochemical
PI3Kγ = PI3Kγ (Homo sapiens, UniProt P48736); assay: PI3K-gamma fluorescence polarization assay; conditions: 20 μM PIP2, 25 μM ATP; read-out: PI3Kγ Median IC50
Method: PI3K-alpha and PI3K-gamma Fluorescence Polarization Assay Protocols
The reaction buffer was 20 mM HEPES pH 7.5, 2 mM MgCl2, 0.05% CHAPS, and 0.01% βME (added fresh). The substrate solution was 40 μM PIP2 (diC8, Echelon, Salt Lake City Utah cat # P-4508, 1 mM in water) and 50 μM ATP in the reaction buffer. Nunc 384-well black polypropylene fluorescent plates were used for PI3K assays. The assay is run by putting 9.5 μl of freshly diluted enzyme in the reaction buffer per well, adding 0.5 μl of diluted drug or DMSO, and mixing. Then 10 μl of the substrate solution is added to each well to start the reaction. A final concentration of 20 μM PIP2 and 25 μM ATP in the reaction was used. Reactions were allowed to proceed for 30-60 minutes at room temperature. After 30-60 minutes, 20 μl of a solution of 10 nM TAMRA detector (Red detector probe-Echelon) and 2.5 μM of GST-murineGRP (1.5 mg/ml in 17% glycerol) was added per well to stop the reaction. The resulting solution was mixed well and allowed to stand for 90-110 minutes before reading plate. Assay Plates were read on Perkin-Elmer Envision plate readers with appropriate filters for Tamra [BODIPY-TMRI(1,3,4,5)P4]. Data obtained were used to calculate enzymatic activity and enzyme inhibition by inhibitor compounds. It is important to keep Red probe solutions dark. This procedure is adapted from Echelon Biosciences Inc procedure for their PI3-Kinase fluorescence polarization activity Assay kit Product number K-1100.

PI3Kα = PI3Kα (Homo sapiens, UniProt P42336); assay: PI3K-alpha fluorescence polarization assay; conditions: 20 μM PIP2, 25 μM ATP; read-out: PI3Kα Median IC50
mTOR Kinase (FLAG-TOR) = target: T1, mTOR Kinase (FLAG-TOR) (Homo sapiens, UniProt P42345); assay: mTOR kinase assay, purified enzyme, DELFIA format; conditions: 100 μM ATP, 1.25 μM His6-S6K; read-out: mTOR Kinase Median IC50
T1 construct: FLAG

PI3Kα, sequence (P42336 whole entry, species assumed): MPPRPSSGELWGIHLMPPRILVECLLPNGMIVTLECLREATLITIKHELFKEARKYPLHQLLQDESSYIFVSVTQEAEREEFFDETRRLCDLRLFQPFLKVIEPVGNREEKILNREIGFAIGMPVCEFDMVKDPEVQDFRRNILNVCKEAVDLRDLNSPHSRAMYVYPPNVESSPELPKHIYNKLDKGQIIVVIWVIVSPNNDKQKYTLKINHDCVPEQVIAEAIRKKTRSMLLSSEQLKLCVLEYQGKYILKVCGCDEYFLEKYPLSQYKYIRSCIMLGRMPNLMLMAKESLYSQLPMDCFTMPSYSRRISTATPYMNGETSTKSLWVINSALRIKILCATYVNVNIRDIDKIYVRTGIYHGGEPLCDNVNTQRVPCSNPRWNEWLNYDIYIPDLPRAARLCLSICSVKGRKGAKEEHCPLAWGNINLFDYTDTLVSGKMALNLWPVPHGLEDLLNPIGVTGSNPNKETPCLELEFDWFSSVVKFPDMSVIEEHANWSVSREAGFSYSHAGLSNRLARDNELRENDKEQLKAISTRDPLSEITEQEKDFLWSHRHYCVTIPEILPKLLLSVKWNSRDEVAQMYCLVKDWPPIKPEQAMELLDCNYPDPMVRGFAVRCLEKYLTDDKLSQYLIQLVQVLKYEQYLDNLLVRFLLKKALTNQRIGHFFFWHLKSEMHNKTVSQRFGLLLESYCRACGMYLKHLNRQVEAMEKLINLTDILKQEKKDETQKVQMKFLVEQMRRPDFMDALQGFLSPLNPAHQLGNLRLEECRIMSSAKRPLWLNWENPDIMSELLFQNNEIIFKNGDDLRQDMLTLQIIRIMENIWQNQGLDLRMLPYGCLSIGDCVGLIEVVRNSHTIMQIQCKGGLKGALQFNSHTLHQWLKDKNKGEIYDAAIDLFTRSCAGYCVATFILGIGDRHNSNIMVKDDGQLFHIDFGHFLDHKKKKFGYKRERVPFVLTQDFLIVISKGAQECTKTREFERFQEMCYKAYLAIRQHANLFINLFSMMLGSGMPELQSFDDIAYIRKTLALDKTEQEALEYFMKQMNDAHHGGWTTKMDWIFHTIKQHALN
PI3Kα, sequence (P27986 whole entry partner, species assumed): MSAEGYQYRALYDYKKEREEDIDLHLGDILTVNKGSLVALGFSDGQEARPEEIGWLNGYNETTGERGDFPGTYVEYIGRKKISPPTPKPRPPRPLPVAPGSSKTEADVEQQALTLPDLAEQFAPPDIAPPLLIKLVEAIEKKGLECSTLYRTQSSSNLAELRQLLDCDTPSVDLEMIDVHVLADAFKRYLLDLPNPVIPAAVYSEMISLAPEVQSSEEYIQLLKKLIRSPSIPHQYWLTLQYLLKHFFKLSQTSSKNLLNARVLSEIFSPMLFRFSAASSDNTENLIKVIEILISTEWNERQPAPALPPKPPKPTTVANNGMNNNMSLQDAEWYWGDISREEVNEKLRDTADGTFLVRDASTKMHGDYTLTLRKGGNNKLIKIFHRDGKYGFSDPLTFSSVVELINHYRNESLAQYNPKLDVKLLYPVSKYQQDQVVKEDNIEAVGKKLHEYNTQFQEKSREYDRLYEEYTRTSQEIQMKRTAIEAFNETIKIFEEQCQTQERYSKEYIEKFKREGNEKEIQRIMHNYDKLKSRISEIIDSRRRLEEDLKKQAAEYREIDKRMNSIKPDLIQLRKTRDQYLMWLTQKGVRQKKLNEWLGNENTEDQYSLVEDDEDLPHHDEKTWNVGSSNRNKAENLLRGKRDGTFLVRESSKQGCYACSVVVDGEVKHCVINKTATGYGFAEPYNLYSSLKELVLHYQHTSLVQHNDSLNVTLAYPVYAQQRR
PI3Kγ, sequence (P48736 whole entry, species assumed): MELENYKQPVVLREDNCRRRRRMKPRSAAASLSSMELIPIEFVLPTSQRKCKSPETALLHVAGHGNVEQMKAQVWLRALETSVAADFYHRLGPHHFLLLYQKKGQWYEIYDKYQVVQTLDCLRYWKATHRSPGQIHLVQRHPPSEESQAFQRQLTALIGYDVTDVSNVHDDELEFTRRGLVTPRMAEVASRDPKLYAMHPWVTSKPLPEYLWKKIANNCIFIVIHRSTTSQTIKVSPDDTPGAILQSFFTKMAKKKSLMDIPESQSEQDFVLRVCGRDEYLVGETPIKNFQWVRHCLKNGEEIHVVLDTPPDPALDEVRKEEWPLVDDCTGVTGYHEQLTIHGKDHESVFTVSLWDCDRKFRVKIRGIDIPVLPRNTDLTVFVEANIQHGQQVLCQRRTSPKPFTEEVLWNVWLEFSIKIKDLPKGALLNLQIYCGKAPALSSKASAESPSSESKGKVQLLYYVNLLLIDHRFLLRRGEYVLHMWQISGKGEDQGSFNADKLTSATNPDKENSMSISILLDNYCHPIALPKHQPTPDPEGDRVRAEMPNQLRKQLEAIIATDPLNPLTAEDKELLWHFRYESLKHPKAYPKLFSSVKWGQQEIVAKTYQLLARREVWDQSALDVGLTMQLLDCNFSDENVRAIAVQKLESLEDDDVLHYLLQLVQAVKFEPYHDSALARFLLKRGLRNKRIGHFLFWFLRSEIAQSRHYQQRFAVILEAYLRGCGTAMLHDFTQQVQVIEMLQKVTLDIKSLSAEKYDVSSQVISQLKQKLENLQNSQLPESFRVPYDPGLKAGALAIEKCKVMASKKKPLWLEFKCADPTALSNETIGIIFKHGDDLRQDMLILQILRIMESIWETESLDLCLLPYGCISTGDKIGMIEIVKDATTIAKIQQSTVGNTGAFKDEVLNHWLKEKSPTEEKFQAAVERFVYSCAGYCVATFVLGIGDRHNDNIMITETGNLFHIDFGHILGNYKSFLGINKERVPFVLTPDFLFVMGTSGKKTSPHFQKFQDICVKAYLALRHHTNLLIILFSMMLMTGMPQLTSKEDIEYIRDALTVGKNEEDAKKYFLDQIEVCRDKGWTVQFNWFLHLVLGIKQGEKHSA

SMILES | IC50 (PI3Kγ) [nM] | IC50 (PI3Kα) [nM] | IC50 (mTOR Kinase (FLAG-TOR)) [nM]
OCc1cccc(-c2nc(N3CCOCC3)c3cc[nH]c3n2)c1 [Compound 1, [3-(4-morpholin-4-yl-7H-pyrrolo[2,3-d]pyrimidin-2-yl)phenyl]methanol] | 752 | – | –
Oc1cccc(-c2nc(N3CCOCC3)c3cc[nH]c3n2)c1 [Compound 2, 3-(4-morpholin-4-yl-7H-pyrrolo[2,3-d]pyrimidin-2-yl)phenol] | 338 | – | –
c1cc(-c2nc(N3CCOCC3)c3cc[nH]c3n2)c2cn[nH]c2c1 [Compound 3, 2-(1H-indazol-4-yl)-4-morpholin-4-yl-7H-pyrrolo[2,3-d]pyrimidine] | 10800 | 830 | 1200
CN(C)CCn1ccc2c(N3CCOCC3)nc(-c3cccc(O)c3)nc21 [Compound 6, 3-{7-[2-(dimethylamino)ethyl]-4-morpholin-4-yl-7H-pyrrolo[2,3-d]pyrimidin-2-yl}phenol] | 1680 | – | > 800
CN(C)CCn1ccc2c(N3CCOCC3)nc(-c3cccc(CO)c3)nc21 [Compound 7, (3-{7-[2-(dimethylamino)ethyl]-4-morpholin-4-yl-7H-pyrrolo[2,3-d]pyrimidin-2-yl}phenyl)methanol] | 712 | – | > 800
CN(C)CCn1ccc2c(N3CCOCC3)nc(-c3ccc(NC(=O)Nc4ccccn4)cc3)nc21 [Compound 11, 1-(4-{7-[2-(dimethylamino)ethyl]-4-morpholin-4-yl-7H-pyrrolo[2,3-d]pyrimidin-2-yl}phenyl)-3-pyridin-2-ylurea] | 626 | – | –
CN(C)CCn1ccc2c(N3CCOCC3)nc(-c3ccc(NC(=O)Nc4ccc(F)cc4)cc3)nc21 [Compound 13, 1-(4-{7-[2-(dimethylamino)ethyl]-4-morpholin-4-yl-7H-pyrrolo[2,3-d]pyrimidin-2-yl}phenyl)-3-(4-fluorophenyl)urea] | 176 | – | 7.75
CCNC(=O)Nc1ccc(-c2nc(N3CCOCC3)c3ccn(CCN(C)C)c3n2)cc1 [Compound 16, 1-(4-{7-[2-(dimethylamino)ethyl]-4-morpholin-4-yl-7H-pyrrolo[2,3-d]pyrimidin-2-yl}phenyl)-3-ethylurea] | 538 | – | 30
CNC(=O)Nc1ccc(-c2nc(N3CCOCC3)c3ccn(CCN(C)C)c3n2)cc1 [Compound 17, 1-(4-{7-[2-(dimethylamino)ethyl]-4-morpholin-4-yl-7H-pyrrolo[2,3-d]pyrimidin-2-yl}phenyl)-3-methylurea] | 813 | – | 33
O=C(Nc1ccncc1)Nc1ccc(-c2nc(N3CCOCC3)c3ccn(CCN4CCCC4)c3n2)cc1 [Compound 23, 1-{4-[4-morpholin-4-yl-7-(2-pyrrolidin-1-ylethyl)-7H-pyrrolo[2,3-d]pyrimidin-2-yl]phenyl}-3-pyridin-4-ylurea] | 370 | – | –
O=C(Nc1ccncc1)Nc1ccc(-c2nc(N3CCOCC3)c3ccn(CCN4CCCCC4)c3n2)cc1 [Compound 24, 1-{4-[4-morpholin-4-yl-7-(2-piperidin-1-ylethyl)-7H-pyrrolo[2,3-d]pyrimidin-2-yl]phenyl}-3-pyridin-4-ylurea] | 774 | – | –
CN(C)CCNCCn1ccc2c(N3CCOCC3)nc(-c3ccc(NC(=O)Nc4ccncc4)cc3)nc21 [Compound 27, 1-{4-[7-(2-{[2-(dimethylamino)ethyl]amino}ethyl)-4-morpholin-4-yl-7H-pyrrolo[2,3-d]pyrimidin-2-yl]phenyl}-3-pyridin-4-ylurea] | 424 | – | –
CN1CCN(CCn2ccc3c(N4CCOCC4)nc(-c4ccc(NC(=O)Nc5ccncc5)cc4)nc32)CC1 [Compound 28, 1-(4-{7-[2-(4-methylpiperazin-1-yl)ethyl]-4-morpholin-4-yl-7H-pyrrolo[2,3-d]pyrimidin-2-yl}phenyl)-3-pyridin-4-ylurea] | 317 | – | 24

Now those with a lower IC50 (PI3Kγ), led by results:

IC50 (PI3Kγ) [nM] | IC50 (PI3Kα) [nM] | IC50 (mTOR Kinase (FLAG-TOR)) [nM] | SMILES
65 | – | – | O=C(Nc1ccncc1)Nc1ccc(-c2nc(N3CCOCC3)c3cc[nH]c3n2)cc1 [Compound 4, 1-[4-(4-morpholin-4-yl-7H-pyrrolo[2,3-d]pyrimidin-2-yl)phenyl]-3-pyridin-4-ylurea]
78 | 15 | 1.7 | O=C(Nc1ccc(-c2nc(N3CCOCC3)c3cc[nH]c3n2)cc1)Nc1cccnc1 [Compound 5, 1-[4-(4-morpholin-4-yl-7H-pyrrolo[2,3-d]pyrimidin-2-yl)phenyl]-3-pyridin-3-ylurea]
102 | – | 2.95 | CN(C)CCn1ccc2c(N3CCOCC3)nc(-c3ccc(NC(=O)Nc4cccnc4)cc3)nc21 [Compound 9, 1-(4-{7-[2-(dimethylamino)ethyl]-4-morpholin-4-yl-7H-pyrrolo[2,3-d]pyrimidin-2-yl}phenyl)-3-pyridin-3-ylurea]
36 | 11 | – | CN(C)CCn1ccc2c(N3CCOCC3)nc(-c3ccc(NC(=O)Nc4ccncc4)cc3)nc21 [Compound 12, 1-(4-{7-[2-(dimethylamino)ethyl]-4-morpholin-4-yl-7H-pyrrolo[2,3-d]pyrimidin-2-yl}phenyl)-3-pyridin-4-ylurea]
170 | – | – | COC(Cn1ccc2c(N3CCOCC3)nc(-c3ccc(NC(=O)Nc4ccncc4)cc3)nc21)OC [Compound 21, 1-{4-[7-(2,2-dimethoxyethyl)-4-morpholin-4-yl-7H-pyrrolo[2,3-d]pyrimidin-2-yl]phenyl}-3-pyridin-4-ylurea]
7 | – | – | O=CCn1ccc2c(N3CCOCC3)nc(-c3ccc(NC(=O)Nc4ccncc4)cc3)nc21 [Compound 22, 1-{4-[4-morpholin-4-yl-7-(2-oxoethyl)-7H-pyrrolo[2,3-d]pyrimidin-2-yl]phenyl}-3-pyridin-4-ylurea]
36 | – | – | O=C(Nc1ccncc1)Nc1ccc(-c2nc(N3CCOCC3)c3ccn(CCN4CCNCC4)c3n2)cc1 [Compound 29, 1-{4-[4-morpholin-4-yl-7-(2-piperazin-1-ylethyl)-7H-pyrrolo[2,3-d]pyrimidin-2-yl]phenyl}-3-pyridin-4-ylurea]
40 | 4 | – | O=C(Nc1ccncc1)Nc1ccc(-c2nc(N3CCOCC3)c3ccn(CCO)c3n2)cc1 [Compound 34, 1-{4-[7-(2-hydroxyethyl)-4-morpholin-4-yl-7H-pyrrolo[2,3-d]pyrimidin-2-yl]phenyl}-3-pyridin-4-ylurea]
63 | – | – | O=C(Nc1ccncc1)Nc1ccc(-c2nc(N3CCOCC3)c3ccn(CC(F)(F)F)c3n2)cc1 [Compound 36, 1-{4-[4-morpholin-4-yl-7-(2,2,2-trifluoroethyl)-7H-pyrrolo[2,3-d]pyrimidin-2-yl]phenyl}-3-pyridin-4-ylurea]
14 | – | 0.48 | CN(C)CCN(C)C(=O)c1ccc(NC(=O)Nc2ccc(-c3nc(N4CCOCC4)c4ccn(CC(F)(F)F)c4n3)cc2)cc1 [Compound 51, N-[2-(dimethylamino)ethyl]-N-methyl-4-[({4-[4-morpholin-4-yl-7-(2,2,2-trifluoroethyl)-7H-pyrrolo[2,3-d]pyrimidin-2-yl]phenyl}carbamoyl)amino]benzamide]
27 | – | 1.7 | CN(C)C1CCN(C(=O)c2ccc(NC(=O)Nc3ccc(-c4nc(N5CCOCC5)c5ccn(CC(F)(F)F)c5n4)cc3)cc2)CC1 [Compound 57, 1-(4-{[4-(dimethylamino)piperidin-1-yl]carbonyl}phenyl)-3-{4-[4-morpholin-4-yl-7-(2,2,2-trifluoroethyl)-7H-pyrrolo[2,3-d]pyrimidin-2-yl]phenyl}urea]
